How the values were obtained:
[1] = Molar enthalpy of transition or fusion; conditions: DSC
[2] = DTA
[3] = molar heat capacity at constant pressure; conditions: 101.33 kPa, Small sample (50 mg) DSC

O=[N+]([O-])[O-].[Li+] [lithium nitrate]
Crystal
Conditions | Molar enthalpy of transition or fusion [kcal/mol] | Triple point temperature [K]
[1] | 5.86 | –
[2] | – | 525

[3]
Conditions | molar heat capacity at constant pressure [J/K/mol]
310.7 K, Crystal | 63.7
315.7 K, Crystal | 56.8
320.6 K, Crystal | 117
325.6 K, Crystal | 114
330.6 K, Crystal | 80.3
335.6 K, Crystal | 72.2
340.6 K, Crystal | 63.4
345.6 K, Crystal | 78.2
350.6 K, Crystal | 88.7
355.6 K, Crystal | 83.5
360.6 K, Crystal | 80.8
365.6 K, Crystal | 81.5
370.6 K, Crystal | 75.6
375.6 K, Crystal | 79.1
380.6 K, Crystal | 77.3
385.6 K, Crystal | 80.7
390.6 K, Crystal | 81.1
395.6 K, Crystal | 83.9
400.6 K, Crystal | 87.5
405.5 K, Crystal | 86.4
410.5 K, Crystal | 81.9
415.5 K, Crystal | 90.3
420.5 K, Crystal | 87.1
425.5 K, Crystal | 86.2
430.5 K, Crystal | 91.5
435.6 K, Crystal | 94.4
440.6 K, Crystal | 95.6
445.5 K, Crystal | 88.4
450.5 K, Crystal | 93.6
455.4 K, Crystal | 90.4
460.3 K, Crystal | 93.1
465.4 K, Crystal | 96.3
470.5 K, Crystal | 97.4
475.5 K, Crystal | 91.5
480.6 K, Crystal | 94.5
485.5 K, Crystal | 95.6
490.5 K, Crystal | 99.4
495.5 K, Crystal | 102
500.5 K, Crystal | 98.8
505.5 K, Crystal | 103
510.5 K, Crystal | 110
515.5 K, Crystal | 125
520.5 K, Crystal | 127
535.5 K, Liquid | 114
540.5 K, Liquid | 122
545.5 K, Liquid | 122
550.5 K, Liquid | 125
555.5 K, Liquid | 117
560.5 K, Liquid | 121
570.5 K, Liquid | 122
575.5 K, Liquid | 123
580.5 K, Liquid | 116
585.5 K, Liquid | 121
590.5 K, Liquid | 119
595.5 K, Liquid | 122
600.5 K, Liquid | 119
610.5 K, Liquid | 113
615.5 K, Liquid | 120
620.5 K, Liquid | 110

O=[N+]([O-])[O-].O=[N+]([O-])[O-].[Li+].[Rb+] [lithium rubidium nitrate]
Crystal
Conditions | Molar enthalpy of transition or fusion [kcal/mol] | Triple point temperature [K]
[1] | 5.31 | –
[2] | – | 460

[3]
Conditions | molar heat capacity at constant pressure [J/K/mol]
315.6 K, Crystal | 150.8
320.6 K, Crystal | 166.6
325.6 K, Crystal | 171.8
330.6 K, Crystal | 190.8
335.6 K, Crystal | 179.2
340.6 K, Crystal | 184.8
345.6 K, Crystal | 184
350.6 K, Crystal | 200
355.6 K, Crystal | 204
360.6 K, Crystal | 222
365.6 K, Crystal | 222
370.6 K, Crystal | 190.6
375.6 K, Crystal | 206
380.6 K, Crystal | 189
385.6 K, Crystal | 196.4
390.5 K, Crystal | 206
395.5 K, Crystal | 224
400.5 K, Crystal | 191.4
405.5 K, Crystal | 210
410.5 K, Crystal | 195.4
420.5 K, Crystal | 206
425.5 K, Crystal | 224
435.5 K, Crystal | 232
445.5 K, Crystal | 262
460.5 K, Liquid | 374
470.5 K, Liquid | 346
475.5 K, Liquid | 342
480.5 K, Liquid | 364
485.5 K, Liquid | 382
490.5 K, Liquid | 384

O=[N+]([O-])[O-].[Rb+] [rubidium nitrate]
Conditions | Molar enthalpy of transition or fusion, Crystal 1 [kcal/mol] | Molar enthalpy of transition or fusion, Crystal 2 [kcal/mol] | Molar enthalpy of transition or fusion, Crystal 3 [kcal/mol] | Molar enthalpy of transition or fusion, Crystal 4 [kcal/mol] | Triple point temperature, Crystal 1 [K] | Triple point temperature, Crystal 2 [K] | Triple point temperature, Crystal 3 [K] | Triple point temperature, Crystal 4 [K]
[1] | 1.12 | 0.299 | 0.554 | 0.889 | – | – | – | –
[2] | – | – | – | – | 583 | 555 | 500 | 437

[3]
Conditions | molar heat capacity at constant pressure [J/K/mol]
325.6 K, Crystal 4 | 99
330.6 K, Crystal 4 | 99.5
335.6 K, Crystal 4 | 101
340.6 K, Crystal 4 | 102
345.6 K, Crystal 4 | 101
350.6 K, Crystal 4 | 101
355.6 K, Crystal 4 | 102
360.6 K, Crystal 4 | 100
365.6 K, Crystal 4 | 104
370.6 K, Crystal 4 | 104
375.6 K, Crystal 4 | 106
380.6 K, Crystal 4 | 107
385.6 K, Crystal 4 | 109
390.6 K, Crystal 4 | 109
395.6 K, Crystal 4 | 110
400.6 K, Crystal 4 | 111
405.6 K, Crystal 4 | 112
410.6 K, Crystal 4 | 113
415.6 K, Crystal 4 | 113
420.6 K, Crystal 4 | 114
425.5 K, Crystal 4 | 123
430.5 K, Crystal 4 | 118
435.5 K, Crystal 4 | 123
440.5 K, Crystal 3 | 833
445.5 K, Crystal 3 | 134
450.5 K, Crystal 3 | 134
455.5 K, Crystal 3 | 135
460.5 K, Crystal 3 | 136
465.5 K, Crystal 3 | 136
470.5 K, Crystal 3 | 138
475.5 K, Crystal 3 | 138
480.5 K, Crystal 3 | 138
485.5 K, Crystal 3 | 138
490.5 K, Crystal 3 | 139
495.5 K, Crystal 3 | 139
500.5 K, Crystal 2 | 303
505.5 K, Crystal 2 | 368
510.5 K, Crystal 2 | 175
515.5 K, Crystal 2 | 132
520.5 K, Crystal 2 | 134
525.5 K, Crystal 2 | 135
530.5 K, Crystal 2 | 136
535.5 K, Crystal 2 | 136
540.5 K, Crystal 2 | 136
545.5 K, Crystal 2 | 137
550.5 K, Crystal 2 | 161
555.5 K, Crystal 1 | 151
560.5 K, Crystal 1 | 399
565.5 K, Crystal 1 | 112
570.5 K, Crystal 1 | 113
575.5 K, Crystal 1 | 111
580.5 K, Crystal 1 | 115
585.5 K, Liquid | 744
590.5 K, Liquid | 249
595.5 K, Liquid | 157
600.5 K, Liquid | 140
605.5 K, Liquid | 138
610.5 K, Liquid | 138
615.5 K, Liquid | 138
620.5 K, Liquid | 137
